Measured values as given in PubChem BioAssay (NCI).
Values joined by “and” are separate entries in the source; they are usually repeats but may differ in a detail not shown here. Equal values may be shown once.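 Briefly, cells in 96-well plates were exposed to five compound concentrations for 48 h, and endpoints were estimated by linear interpolation. GI50 marks 50% less growth. At the TGI there is no net growth.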

Experiments:
Assay in all cases: NCI tumour cell line growth inhibition, 48 h
[1] = tested on: A498 renal
[2] = tested on: MALME-3M melanoma
[3] = tested on: MCF7 breast
[4] = tested on: NCI-H23 lung
[5] = tested on: NCI/ADR-RES ovarian
[6] = tested on: OVCAR-3 ovarian
[7] = tested on: SF-268 CNS
[8] = tested on: SF-539 CNS
[9] = tested on: SR leukemia
[10] = tested on: TK-10 renal
[11] = tested on: U251 CNS

Compound	TGI [1]	TGI [2] [µM]	TGI [3] [µM]	TGI [4] [µM]	TGI [5] [µM]	TGI [6] [µM]	TGI [7] [µM]	TGI [8] [µM]	TGI [9] [µM]	TGI [10] [µM]	TGI [11] [µM]	GI50 [1] [µM]	GI50 [2] [µM]	GI50 [3] [µM]	GI50 [4] [µM]	GI50 [5] [µM]	GI50 [6]	GI50 [7] [µM]	GI50 [8]	GI50 [11] [µM]
CCn1c(=O)c2c3cc(O)ccc3oc2c2ccc(O)cc21	55.5 µM	> 100	> 100	> 100	> 100	> 100	> 100	73	63.5	> 100	> 100	–	–	–	–	–	–	–	–	–
O=C(O)c1ccc(NS(=O)(=O)Cc2ccccc2)cc1	> 100 µM	> 100	> 100	> 100	> 100	> 100	> 100	> 100	> 100	> 100	> 100	–	–	–	–	–	–	–	–	–
O=C1/C(=C/c2ccc(Br)s2)NC(=S)N1CN1CCOCC1	> 100 µM	> 100	52.8	> 100	> 100	> 100	> 100	–	55.2	> 100	> 100	–	–	–	–	–	–	–	–	–
COc1ccc(CNc2nc3ccc(C(F)(F)F)cc3nc2-c2ccccc2)cc1OC	–	> 100	–	> 100	–	> 100	> 100	> 100	> 100	> 100	> 100	–	–	–	–	–	–	–	–	–
C(=Nc1ccc(-c2nc3ccccc3s2)cc1)c1ccco1	99.3 µM	> 100	–	> 100	> 100	> 100	> 100	> 100	> 100	8.51	> 100	–	–	–	–	–	–	–	–	–
O=C1NC(=S)NC(=O)C1C(c1ccccc1[N+](=O)[O-])C1C(=O)NC(=S)NC1=O	> 100 µM	> 100	> 100	> 100	> 100	> 100	> 100	–	–	> 100	> 100	–	–	–	–	–	–	–	–	–
Cc1cc(C)c2c(n1)S(=O)(=O)N(CCCN1CCN(c3cccc(C(F)(F)F)c3)CC1)/C(=C(\O)c1ccc(Cl)cc1)C2=O	16.9 µM	15.8	14	14	16.4	18.9	21.2	17.1	> 100	11.9	14.3	–	–	–	–	–	–	–	–	–
Cc1ccc(C(=O)Nc2ccc(CP(=O)(O)O)cc2)cc1NC(=O)c1cccc(NC(=O)Nc2cccc(C(=O)Nc3cc(C(=O)Nc4ccc(CP(=O)(O)O)cc4)ccc3C)c2)c1	> 100 µM	> 100	> 100	> 100	> 100	> 100	> 100	> 100	–	> 100	> 100	–	–	–	–	–	–	–	–	–
CC(C)/C(Cl)=N\OC(=O)NNc1ccccc1	> 100 µM	38.3	> 100	> 100	> 100	> 100	> 100	> 100	–	> 100	> 100	–	–	–	–	–	–	–	–	–
CN(C)c1ccc(/C(Br)=C2\OC(=O)c3ccccc32)cc1	> 100 µM	> 100	> 100	> 100	> 100	–	> 100	> 100	> 100	> 100	> 100	–	–	–	–	–	–	–	–	–
Cc1ccc(C2=Nc3c(c(C)nn3-c3ccccc3)N=C(C(=O)O)C2)cc1	> 10 µM	> 10	> 10	> 10	> 10	> 10	> 10	> 10	–	> 10	> 10	–	–	–	–	–	–	–	–	–
COc1cc([C@@H]2c3cc4c(cc3C[C@H]3COC(=O)[C@@H]32)OCO4)cc(OC)c1OC	0.00969 µM and 0.0642 µM	> 50	2.03	3.52	0.202	0.0745	> 50	0.00812	–	–	1.5	0.0023	0.00681	0.00506	0.00428	0.00917	0.00424 µM and 0.00911 µM	0.00581	0.00279 µM and 0.0062 µM	0.00392
CCOC(=O)c1c(N)n(-c2ccccc2)c(=S)n(-c2ccccc2)c1=O	–	> 100	> 100	> 100	–	> 100	> 100	–	> 100	> 100	> 100	–	–	–	–	–	–	–	–	–
c1ccc(N=c2snc(-c3ccccc3)s2)cc1	> 100 µM	> 100	–	–	–	–	> 100	> 100	> 100	> 100	> 100	–	–	–	–	–	–	–	–	–
COc1ccc(NC2Oc3cc4c(cc3C(c3cc(OC)c(OC)c(OC)c3)C2C)OCO4)cc1 (stereo not drawn)	0.92 µM	> 100	> 41.3	> 89.7	–	> 100	> 100	0.492	–	> 82.8	11.6	–	–	–	–	–	–	–	–	–
O=c1nc2c(c(-c3cccc(Cl)c3)[nH]1)COC/C2=C\c1cccc(Cl)c1	> 100 µM	–	> 100	> 100	> 100	> 100	> 100	> 100	> 100	> 100	> 100	–	–	–	–	–	–	–	–	–
Cc1cc2cccc(Cl)c2nc1C(=O)c1ccccc1	–	> 100	–	> 100	–	> 100	> 100	> 100	> 100	> 100	> 100	–	–	–	–	–	–	–	–	–
Cc1cc(O)cc(O)c1N=Nc1ccc([N+](=O)[O-])cc1	50.9 µM	87.7	> 100	52	52.9	> 100	> 100	49.9	–	> 100	53.9	–	–	–	–	–	–	–	–	–
CN(O)C(=O)Cc1ccc(OCc2cccc(Cl)c2)cc1	94.3 µM	–	> 100	> 100	> 100	> 100	> 100	> 100	> 100	> 100	> 100	–	–	–	–	–	–	–	–	–
CCN(CCCN(CC)C(=O)N[C@@H](Cc1ccccc1)C(=O)NC)C(=O)N[C@@H](Cc1ccccc1)C(=O)NC	> 100 µM	> 100	–	> 100	> 100	> 100	> 100	> 100	> 100	> 100	> 100	–	–	–	–	–	–	–	–	–
CC(=O)/C(=C/n1c(=S)sc2ccccc21)C(=O)Nc1ccccc1C	> 100 µM	–	> 100	> 100	> 100	> 100	> 100	> 100	–	> 100	> 100	–	–	–	–	–	–	–	–	–
CN1C(=O)CN(NC(=O)C2=C(O)c3ccc(Br)cc3S(=O)(=O)N2)C1=S	> 100 µM	> 100	> 100	> 100	> 100	–	> 100	–	> 100	> 100	> 100	–	–	–	–	–	–	–	–	–
CC(=O)CC(=O)c1cc2c(=O)oc(C)cc2oc1=O	–	> 37.5	> 37.5	> 37.5	> 37.5	> 37.5	> 37.5	> 37.5	> 37.5	> 37.5	> 37.5	–	–	–	–	–	–	–	–	–

Compound	TGI [1]	TGI [2] [µM]	TGI [3] [µM]	TGI [4] [µM]	TGI [5] [µM]	TGI [6] [µM]	TGI [7] [µM]	TGI [8] [µM]	TGI [9] [µM]	TGI [10] [µM]	TGI [11] [µM]	GI50 [1] [µM]	GI50 [2] [µM]	GI50 [3] [µM]	GI50 [4] [µM]	GI50 [5] [µM]	GI50 [6]	GI50 [7] [µM]	GI50 [8]	GI50 [11] [µM]
CN1CCN(C(=S)N(C)C(=O)c2ccc(Cl)cc2)CC1	–	> 100	> 100	> 100	–	> 100	> 100	–	–	> 100	> 100	–	–	–	–	–	–	–	–	–
CC1CC(C#N)=C2NCCCCN2C1=O (stereo not drawn)	–	> 100	> 100	> 100	> 100	> 100	> 100	> 100	> 100	> 100	> 100	–	–	–	–	–	–	–	–	–
CCOC(=O)C1CC(O)C(=O)N1C (stereo not drawn)	–	–	> 100	> 100	–	> 100	–	> 100	> 100	> 100	> 100	–	–	–	–	–	–	–	–	–
Nc1ncnc2c1ncn2C(=O)NC12CC3CC(CC(C3)C1)C2	> 100 µM	> 100	> 100	> 100	> 100	> 100	> 100	> 100	–	> 100	> 100	–	–	–	–	–	–	–	–	–
N#Cc1c(OCCF)c2ccccc2n2c1nc1ccccc12	> 100 µM	–	> 100	> 100	> 100	> 100	> 100	52.3	> 100	> 100	> 100	–	–	–	–	–	–	–	–	–
C=CCCCC12CCCc3cccc(c31)NC2=O (stereo not drawn)	45.6 µM	30.2	–	36.8	–	39.1	–	47.4	> 100	42.4	50.3	–	–	–	–	–	–	–	–	–
O=C1C(Cl)N(c2ccccc2)C1c1c[nH]c2ccccc12 (stereo not drawn)	–	> 100	–	> 100	–	> 100	> 100	> 100	> 100	> 100	> 100	–	–	–	–	–	–	–	–	–
O=C(OCc1ccccc1)OOC(=O)OCc1ccccc1	> 100 µM	> 100	–	> 100	–	> 100	> 100	> 100	> 100	–	> 100	–	–	–	–	–	–	–	–	–
CC(C)CCNC(=O)c1ccc(CNC(=O)/C=C/c2ccc(OCc3ccccc3)cc2)cc1	> 100 µM	–	> 100	> 100	> 100	> 100	> 100	–	> 100	–	> 100	–	–	–	–	–	–	–	–	–
COC(=O)C1CC(C=[N+](C)C)=C(SC)N1 (stereo not drawn)	> 100 µM	> 100	> 100	> 100	> 100	> 100	> 100	–	> 100	> 100	> 100	–	–	–	–	–	–	–	–	–
O=C(CCc1ccc(O)cc1)c1c(O)cc(O)cc1OC1OC(CO)C(O)C(O)C1O (stereo not drawn)	> 100 µM	> 100	–	> 100	> 100	> 100	> 100	> 100	–	> 100	–	–	–	–	–	–	–	–	–	–
CC(C)=CC1C(C(=O)O)C1(C)C (stereo not drawn)	> 34.8 µM	> 750	> 750	> 750	> 750	> 750	> 750	> 750	–	–	> 750	–	–	–	–	–	–	–	–	–
N#CSCc1cccc(Nc2cc(=O)[nH]c(=O)[nH]2)c1	> 100 µM	> 100	38.9	> 100	> 100	> 100	78.4	98.6	–	> 100	> 100	–	–	–	–	–	–	–	–	–
Cc1nc2cc(C(F)(F)F)ccc2[nH]c1=O	> 100 µM	> 100	> 100	> 100	> 100	> 100	> 100	> 100	–	> 100	> 100	–	–	–	–	–	–	–	–	–
C[C@@H]1C[C@H](O)[C@]2(O)O[C@@H]3C[C@@]4(C=O)[C@@H](CC=C5[C@@H]4CC[C@]4(C)[C@@H](C6=CC(=O)OC6)CC[C@]54O)C[C@H]3O[C@@H]2O1	0.0627 µM	0.0532	–	0.0207	0.215	0.308	0.166	0.141	–	0.186	0.188	–	–	–	–	–	–	–	–	–
O=C1/C(=C/c2ccc(F)cc2)CNC/C1=C\c1ccc(F)cc1	4.33 µM	13.2	8.83	3.5	–	3.99	4.06	2.39	> 100	6.71	1.39	–	–	–	–	–	–	–	–	–
CCOC(=O)C(=O)N1C(C)=C(C(=O)OCC)CC(C(=O)OCC)=C1C	> 100 µM	> 100	> 100	> 100	–	> 100	–	> 100	> 100	> 100	–	–	–	–	–	–	–	–	–	–
NCCCC(N)C(=O)O (stereo not drawn)	> 100 µM	> 100	> 100	> 100	> 100	> 100	> 100	–	> 100	> 100	> 100	–	–	–	–	–	–	–	–	–
O=c1c2cc(I)ccc2[nH]c(=S)n1Cc1ccccc1	54.3 µM	–	> 100	> 100	> 100	> 100	57.5	33.4	> 100	42	> 100	–	–	–	–	–	–	–	–	–
CCN(CC)CCCn1c(=O)c2cccnc2n2c3c(=O)n(C)c(=O)n(C)c3nc12	–	> 100	> 100	> 100	> 100	> 100	> 100	> 100	> 100	> 100	> 100	–	–	–	–	–	–	–	–	–
CC(=O)Nc1ccc(Cl)c(Cl)c1	–	> 100	–	> 100	–	> 100	> 100	> 100	> 100	> 100	> 100	–	–	–	–	–	–	–	–	–
COC1C=CC23c4cc5c(cc4C(O)OC2CN(C)C3C1)OCO5 (stereo not drawn)	9.89 µM	6.49	–	27.4	–	5.8	26.9	3.65	4.59	–	–	–	–	–	–	–	–	–	–	–
